Test results from BindingDB's records for doi:10.1016/s1074-5521(98)90632-9 (Merck Research Laboratories, 1998).

Assays:
[1] = molecular target: T1, Beta-lactamase (Bacteroides fragilis, UniProt Q8KZP2); assay: Metallo-Beta-Lactamase Assay; details: pH 7; 37 °C
T1 sequence (Q8KZP2 whole entry): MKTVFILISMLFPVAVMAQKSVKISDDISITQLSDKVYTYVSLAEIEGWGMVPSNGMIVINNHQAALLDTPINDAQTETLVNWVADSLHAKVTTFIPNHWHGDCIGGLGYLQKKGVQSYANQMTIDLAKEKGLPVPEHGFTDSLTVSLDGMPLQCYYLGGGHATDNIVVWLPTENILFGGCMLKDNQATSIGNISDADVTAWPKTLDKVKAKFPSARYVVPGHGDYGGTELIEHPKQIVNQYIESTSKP
Description: Enzyme inhibition assay by biphenyl tetrazoles (BPTS)using metallo-beta-lactamase.

[2] = molecular target: T2, Dipeptidase 1 (Homo sapiens, UniProt P16444); assay: Dehydropeptidase I Assay; details: pH 7; 37 °C
T2 sequence (P16444 whole entry): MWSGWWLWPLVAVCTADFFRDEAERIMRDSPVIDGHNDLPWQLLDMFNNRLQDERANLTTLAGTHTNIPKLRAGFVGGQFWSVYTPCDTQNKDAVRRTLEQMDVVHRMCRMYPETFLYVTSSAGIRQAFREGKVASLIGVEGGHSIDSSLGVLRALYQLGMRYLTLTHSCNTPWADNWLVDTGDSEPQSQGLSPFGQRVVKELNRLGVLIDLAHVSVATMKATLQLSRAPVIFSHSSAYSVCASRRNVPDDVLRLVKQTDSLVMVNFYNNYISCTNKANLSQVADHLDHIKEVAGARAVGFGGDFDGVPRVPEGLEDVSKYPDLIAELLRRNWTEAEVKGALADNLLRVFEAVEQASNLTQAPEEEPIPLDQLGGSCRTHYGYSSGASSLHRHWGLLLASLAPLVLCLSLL
Description: Enzyme inhibition assay by biphenyl tetrazoles (BPTS)using dehydropeptidase 1 (DPH-1).

SMILES | IC50 [1] [µM] | IC50 [2] [µM]
CCCCc1nc2ccc(O)cc2c(=O)n1Cc1ccc(-c2ccccc2-c2nnn[nH]2)cc1 | 1.9 | > 100
CCCc1nc(CC)c(C=O)n1Cc1ccc(-c2ccccc2-c2nnn[nH]2)cc1 | 7 | 190
Cc1ccc(-c2ccccc2-c2nnn[nH]2)cc1 [L-158,507] | 160 | > 1000
CCCc1nc2ccc(Cl)nc2n1Cc1ccc(-c2ccccc2-c2nnn[nH]2)cc1 [L-158-678] | 3.5 | 240
Cc1ccnc2c1nc(C(C)C)n2Cc1ccc(-c2ccccc2-c2nnn[nH]2)cc1 [L-158-817] | 1.8 | > 100
c1ccc(-c2nnn[nH]2)c(-c2ccc(Cn3cnc4cccnc43)cc2)c1 [L-809-558] | 42 | > 250
Cc1nc2ccccc2n1Cc1ccc(-c2ccccc2-c2nnn[nH]2)cc1 [L-809-559] | 4 | > 250

Further lines, results first:

IC50 [1] [µM] | IC50 [2] [µM] | SMILES
0.4 | > 100 | CCCCc1nc2c(c(=O)n1Cc1ccc(-c3ccccc3-c3nnn[nH]3)cc1)SCC2 [L-159,906]
0.3 | 120 | C1=Cc2c(c3ccccc3n2Cc2ccc(-c3ccccc3-c3nnn[nH]3)cc2)CC1 [L-161,189]
110 | > 500 | c1ccc(-c2nnn[nH]2)c(-c2ccc(Cn3cnc4ccccc43)cc2)c1 [L-808,509]
860 | > 1000 | c1ccc(-c2ccccc2-c2nn[nH]n2)cc1 [L-809,022]
42 | > 100 | C1=Cc2[nH]c3cc(OCc4ccc(-c5ccccc5-c5nnn[nH]5)cc4)ccc3c2CC1 [L-809,339]
6 | > 100 | Oc1ccc2c3c(n(Cc4ccc(-c5ccccc5-c5nnn[nH]5)cc4)c2c1)C=CCC3 [L-809,370]
